# Legend:
# Experiment in all cases: relative viability (nuclei count vs DMSO), 5 days (fraction); higher = more cells survive
# [1] = system: COR-L 105
# Procedure, shortened: (§1)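 Relative viability divides the nuclei count in treated wells by that in vehicle wells. Lung cancer cell lines were seeded in 1536-well plates, dosed by pin tool the next day, and fixed and stained after 5 days in one step with final 0.05% Triton X-100, 1% formaldehyde and 1 ug/ml Hoechst. Dosing was a single drug or a fixed anchor-drug dose plus five library-drug doses (not always all listed) in √10 steps, and values are medians of duplicate plates imaged at 4×.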
# [2] = system: COR-L23
# Procedure, shortened: as §1
# [3] = system: EKVX
# Procedure, shortened: as §1
# [4] = system: HARA
# Procedure, shortened: as §1
# [5] = system: HCC-15
# Procedure, shortened: as §1
# [6] = system: HOP-62
# Procedure, shortened: as §1
# [7] = system: NCI-H1355
# Procedure, shortened: as §1
# [8] = system: NCI-H1395
# Procedure, shortened: as §1
# [9] = system: NCI-H1734
# Procedure, shortened: as §1
# [10] = system: NCI-H1755
# Procedure, shortened: as §1
# [11] = system: NCI-H1793
# Procedure, shortened: as §1
smiles,measurement,setting,value
C=C1C(=O)O[C@@H](CCCCCCCC)[C@@H]1C(=O)O [C-75] + Cc1nc(NC(=O)N2CCC[C@H]2C(N)=O)sc1-c1ccnc(C(C)(C)C(F)(F)F)c1 [Alpelisib] (partner 2 µM),relative viability,[1]; first compound 0.08 µM,1.15
same,relative viability,[1]; first compound 0.253 µM,1.1
same,relative viability,[1]; first compound 0.8 µM,1.06
same,relative viability,[1]; first compound 2.53 µM,0.895
same,relative viability,[1]; first compound 8 µM,0.668
same,relative viability,[2]; first compound 0.08 µM,0.762
same,relative viability,[2]; first compound 0.253 µM,1.02
same,relative viability,[2]; first compound 0.8 µM,0.753
same,relative viability,[2]; first compound 2.53 µM,0.741
same,relative viability,[2]; first compound 8 µM,0.723
same,relative viability,[3]; first compound 0.08 µM,0.885
same,relative viability,[3]; first compound 0.253 µM,0.863
same,relative viability,[3]; first compound 0.8 µM,0.913
same,relative viability,[3]; first compound 2.53 µM,0.583
same,relative viability,[3]; first compound 8 µM,0.969
same,relative viability,[4]; first compound 0.08 µM,0.849
same,relative viability,[4]; first compound 0.253 µM,1
same,relative viability,[4]; first compound 0.8 µM,0.767
same,relative viability,[4]; first compound 8 µM,0.883
same,relative viability,[5]; first compound 0.08 µM,0.891
same,relative viability,[5]; first compound 0.253 µM,0.862
same,relative viability,[5]; first compound 0.8 µM,0.873
same,relative viability,[5]; first compound 2.53 µM,0.641
same,relative viability,[5]; first compound 8 µM,0.871
same,relative viability,[6]; first compound 0.08 µM,0.9
same,relative viability,[6]; first compound 0.253 µM,1.11
same,relative viability,[6]; first compound 0.8 µM,0.95
same,relative viability,[6]; first compound 2.53 µM,0.926
same,relative viability,[6]; first compound 8 µM,0.765
same,relative viability,[7]; first compound 0.08 µM,0.815
same,relative viability,[7]; first compound 0.253 µM,0.825
same,relative viability,[7]; first compound 0.8 µM,0.825
same,relative viability,[7]; first compound 2.53 µM,0.835
same,relative viability,[7]; first compound 8 µM,0.886
same,relative viability,[8]; first compound 0.08 µM,1.05
same,relative viability,[8]; first compound 0.253 µM,1.13
same,relative viability,[8]; first compound 0.8 µM,1.07
same,relative viability,[8]; first compound 2.53 µM,0.868
same,relative viability,[8]; first compound 8 µM,1.28
same,relative viability,[9]; first compound 0.08 µM,0.691
same,relative viability,[9]; first compound 0.253 µM,0.609
same,relative viability,[9]; first compound 0.8 µM,0.69
same,relative viability,[9]; first compound 2.53 µM,0.447
same,relative viability,[9]; first compound 8 µM,0.631
same,relative viability,[10]; first compound 0.08 µM,0.938
same,relative viability,[10]; first compound 0.253 µM,0.823
same,relative viability,[10]; first compound 0.8 µM,0.913
same,relative viability,[10]; first compound 2.53 µM,0.739
same,relative viability,[10]; first compound 8 µM,0.919
same,relative viability,[11]; first compound 0.08 µM,0.72
same,relative viability,[11]; first compound 0.253 µM,0.723
same,relative viability,[11]; first compound 0.8 µM,0.585
same,relative viability,[11]; first compound 2.53 µM,0.708
same,relative viability,[11]; first compound 8 µM,0.816

# — the supplement of paper PMC10307832
